In patent US4423071A, “Polyol derivatives, processes for preparing the same and their uses in therapeutics” (Sanofi, priority 1979, dated 1983):
Entries after “also recorded” stand apart in the source; their conditions may differ. Like-named read-outs stand apart in the source and are kept apart here.

What was measured:
[1] = design: species or system humans; conditions: in vivo
Description: FIG. 8: represents blood-levels in di-n-propylacetic acid obtained from:
(a) An oral dose of 600 mg of glyceryl 1-(di-n-propylacetate) (Curve 1)
(b) An oral dose of 476 mg of glyceryl 1,2-bis-(-di-n-propylacetate) (Curve 2)
(c) An oral dose of 460 mg of sodium di-n-propylacetate (Curve 3)
FIG. 9: represents the blood-levels in di-n-propylacetic acid obtained from the oral administration of 1000 mg of glyceryl 1,2-bis-(di-n-propylacetate) every 24 hours for 4 days.
FIG. 10: represents the blood-levels in di-n-propylacetic acid obtained from:
(a) An oral dose of 1000 mg of mixtures of glyceryl 1,2-bis-(di-n-propylacetate)/glyceryl 1,3-bis-(di-n-propylacetate)
("Mixtures A and B" referred to above) (Curves 1 to 5)
(b) An oral dose of 1000 mg of sodium di-n-propylacetate (Curve 6)
FIG. 11: represents the blood-levels in di-n-propylacetic acid obtained from an oral dose of 1000 mg of 1,2-propanediol bis-(di-n-propylacetate).

[2] = design: species or system rats; conditions: rat, in vivo, po, 600 mg/kg
Description: The first series of drawings represent blood-levels in acid of formula I above in relation to time, this acid being either released from a salt thereof or from an ester of the invention.
FIG. 1: represents blood-levels in di-n-propylacetic acid obtained from:
(a) An oral dose to rats of 600 mg/kg of either: glyceryl 1-(di-n-propylacetate) (Curve 1) or glyceryl 1,2-bis-(di-n-propylacetate) (Curve 2) or glyceryl 1,3-bis-(di-n-propylacetate) (Curve 3)
(b) An intravenous dose to rats of 200 mg/kg of sodium di-n-propylacetate (Curve 4) […] FIG. 6: represents blood-levels in di-n-propylacetic acid obtained from: […]
(b) An intravenous dose to rats of 200 mg/kg of sodium di-n-propylacetate (Curve 3) FIG. 7: represents blood-levels in di-n-propylacetic acid obtained from:
1,4-butanediol bis-(di-n-propylacetate) (Curve 1) or 2-buten-1,4-diol bis-(di-n-propylacetate) (cis isomer) (Curve 2) or 2-butyn-1,4-diol bis-(di-n-propylacetate) (Curve 3)

[3] = in vivo; cited from earlier work
[4] = Acute toxicity tests in mice; conditions: mouse, in vivo, oral route
[5] = Acute toxicity tests in rats; conditions: rat, in vivo; rats, oral route
Source text: (§1) The results of acute toxicity tests obtained with compounds of the invention are given below:

[6] = test system: Chronic cobalt-induced epilepsy; experiment: Chronic cobalt-induced epilepsy; assay type: in vivo, rats; conditions: 14 days i.p., sodium salt 2 x 200 mg/kg daily, Mixture A 400 mg/kg daily
Description: This trial was performed in comparison with sodium di-n-propylacetate. Batches of rats were given for 14 days either two daily intraperitoneal doses of 200 mg/kg (morning and evening) of sodium di-n-propylacetate or a daily intraperitoneal dose of 400 mg/kg (evening) of a mixture of glyceryl 1,2- and 1,3-bis-(di-n-propylacetates) ("Mixture A").

[7] = Pharmacokinetic trials with animals (species not specified), release of parent acid; assay type: in vivo, animal
rats = experiment: Acute toxicity tests in rats; conditions: rat, in vivo
Source text: as §1

[8] = test system: Pentylenetetrazol-induced seizure; experiment: Pentylenetetrazol-induced seizure (anticonvulsant action); assay type: in vivo; conditions: rats, oral, ester 600 mg/kg, acid 100 mg/kg, pentylenetetrazol 125 mg/kg i.p.
Description: The results of trials performed with such di-n-propylacetyl derivatives in order to determine the anticonvulsant action are set out below.
The anticonvulsant action was determined using pentylenetetrazol as convulsant agent.
Batches of 10 rats were treated by oral route with a dose of 600 mg/kg of glyceryl 1-(di-n-propylacetate).
At various times after administration, the animals received an intraperitoneal dose of 125 mg/kg of pentylenetetrazol.
The percentage of protection against the convulsive seizure was then determined at each of the times in question.
A similar trial was carried out with 100 mg/kg of di-n-propylacetic acid.
This dose represents the amount of di-n-propylacetic acid required to provide a di-n-propylacetic acid blood-level equivalent to the maximum level obtained with 600 mg/kg of glyceryl 1-(di-n-propylacetate). The results obtained are given in the following Table in which are shown the percentage of protection achieved at the various times indicated: […]

| SMILES | LD50 [4] | LD50 [5] | slow-release of di-n-propylacetic acid in the human body ([1]; po) | release of di-n-propylacetic acid in the animal organism [7] | percentage of protection against the convulsive seizure ([8]; 0.5 h) | percentage of protection against the convulsive seizure ([8]; 1 h) | percentage of protection against the convulsive seizure ([8]; 2 h) | percentage of protection against the convulsive seizure ([8]; 4 h) | percentage of protection against the convulsive seizure ([8]; 8 h) | percentage of protection against the convulsive seizure ([8]; 16 h) | other results |
| --- | --- | --- | --- | --- | --- | --- | --- | --- | --- | --- | --- |
| CCCC(CCC)C(=O)OCC(COC(=O)C(CCC)CCC)OC(=O)C(CCC)CCC [glyceryl tri-(di-n-propylacetate)] |  |  |  |  |  |  |  |  |  |  | bioavailability ([1]; po): poor bioavailability; bioavailability [2]: poor bioavailability; maximum blood-levels in di-n-propylacetic acid [2]: ≤ 10 µg/mL; time until di-n-propylacetic acid appeared in the blood [2]: ≥ 150 min; value as a slow-release form of di-n-propylacetic acid [2]: of no value as a slow-release form of di-n-propylacetic acid; slow-release properties as reported in the literature [3]: a remarkably useful substance which has all the properties expected of a slow-release preparation; also recorded: can act as a slow-release form of di-n-propylacetic acid |
| CCCC(CCC)C(=O)[O-].[Na+] [sodium di-n-propylacetate, reference compound] | 1700 mg/kg | 1530 mg/kg |  |  |  |  |  |  |  |  | apparent half-life of di-n-propylacetic acid ([1]; human, po): 11 h 35 min h min; Number of seizures between the 7th and 14th day ([6]; controls 3.57): 1.25; Number of rats presenting at least one seizure ([6]; controls 7/7): 3/4 |
| CCCC(CCC)C(=O)OCC(CO)OC(=O)C(CCC)CCC (stereo not shown) [glyceryl 1,2-bis-(di-n-propylacetate), Glyceryl 1,2-bis-(di-n-propylacetate)] |  |  | can provide the slow-release of di-n-propylacetic acid in the human body to a degree which enables therapeutic blood-levels in this acid to be attained | possess the requisite qualities to enable di-n-propylacetic acid to be released in the animal organism at a decreasing rate |  |  |  |  |  |  | LD0 (rats; ip): > 2000 mg/kg; LD0 (rats; po): > 5000 mg/kg |
| CCCC(CCC)C(=O)O [di-n-propylacetic acid, reference compound] |  |  |  |  | 23% | 0% | 0% | 0% | 0% | 0% |  |
| CCCC(CCC)C(=O)OCC(O)COC(=O)C(CCC)CCC [glyceryl 1,3-bis-(di-n-propylacetate), Glyceryl 1,3-bis-(di-n-propylacetate)] |  |  | can provide the slow-release of di-n-propylacetic acid in the human body to a degree which enables therapeutic blood-levels in this acid to be attained | possess the requisite qualities to enable di-n-propylacetic acid to be released in the animal organism at a decreasing rate |  |  |  |  |  |  | bioavailability compared with the 1,2-diester [1]: better bioavailability than that of the corresponding 1,2-diester; blood-levels in di-n-propylacetic acid compared with the 1,2-diester [1]: Very similar results |
| CCCC(CCC)C(=O)OCC(O)CO (stereo not shown) [glyceryl 1-(di-n-propylacetate), Glyceryl 1-(di-n-propylacetate)] | 3360 mg/kg | 2360 mg/kg | quite unable to induce a slow-release in di-n-propylacetic acid in the blood | possess the requisite qualities to enable di-n-propylacetic acid to be released in the animal organism at a decreasing rate | 29% | 56% | 41% | 43% | 35% | 22% | metabolism to glycerol and di-n-propylacetic acid [1]: too rapid; blood-levels in di-n-propylacetic acid (FIG. 1) [2]: resists the rapid elimination of this acid and maintains a high blood-level in this acid |
